Experimental data: patent US20180243421A1, “IMMUNOSTIMULATING AGENT” (AJINOMOTO CO., INC., priority 2015, published 2018)

Legend:
[1] = tested on: anti-OVA-specific IgG1 subclass antibody; test: Adjuvant activity: anti-OVA-specific IgG1 subclass antibody in serum after secondary immunization (Examples 1, 5, 7, 8; ELISA absorbance); assay type: in vivo, BALB/c mice; settings: Example 7
Procedure: Two weeks from the secondary immunization, the whole blood was extracted under anesthesia, and the obtained serum sample was measured for anti-OVA-specific IgG1 subclass antibody.
A method for measurement of the anti-OVA-specific IgG1 subclass antibody in Example 1, and the following Examples 5, 7 and 8 is as follows.
Measurement Method of anti-OVA-specific IgG1 Subclass Antibody
To a 96 well plate was added 5 μg/ml OVA at 100 μl/well, and the mixture was incubated at 4° C. overnight. After incubation, the mixture was washed three times with 200 μl of PBS-T (PBS+0.05%(v/v) Tween 20) per well, and blocked with 100 μl of 5% FCS/PBS solution per well at room temperature for 1 to 2 hr. Thereafter, the mixture was washed three times with PBS-T (200 μl/well), a diluted serum sample (100 μl/well) or the same amount of 5% FCS/PBS solution as a control was added, and the mixture was incubated at 37° C. for 1 hr. Thereafter, the mixture was washed five times with PBS-T (200 μl/well), a diluted biotinylated anti-mouse IgG1 antibody (100 μl/well) was added, and the mixture was incubated at 37° C. for 45 min. Thereafter, the mixture was washed five times with PBS-T (200 μl/well), a diluted anti-biotin-HRP antibody was added (100 μl/well), and the mixture was incubated at 37° C. for another 30 min. Thereafter, the mixture was washed five times with PBS-T (200 μl/well), TMB substrate solution was added (100 μl/well), and the mixture was incubated at room temperature for 10 to 15 min. Thereafter, a reaction quenching liquid (2N sulfuric acid solution) was added (50 μl/well) to discontinue a color developing reaction, and the absorbance (OD Value=450 nm) was measured by a microplate reader.

[2] = tested on: anti-OVA-specific IgE antibody; settings: mouse, in vivo
Procedure: The serum sample obtained in Example 1 was measured for an anti-OVA-specific IgE antibody. The measurement method of the anti-OVA-specific IgE antibody in Example 3 and Examples 6, 9 is as follows.
Measurement Method of anti-OVA-specific IgE Antibody
DS mouse IgE ELISA (OVA) kit manufactured by DS Pharma Biomedical Co., Ltd. was used. The protocol is briefly shown below.
The serum sample and a standard reagent for drawing an analytical curve are diluted with a buffer and, after stirring, left standing at room temperature for 10 min. The sample and the standard solution are added to a plate bound with an IgE capture antibody in advance and, after stirring, the mixture is left standing at room temperature for 60 min. The mixture is washed three times with wash, HRP-labeled OVA is added, and the mixture is left standing at room temperature for 30 min. The mixture is washed three times with wash, a substrate solution is added, and the mixture is left standing in dark at room temperature for 30 min. A reaction quenching liquid is added, the mixture is stirred, and the absorbance (OD Value=450 nm) is immediately measured.
This test was performed in the same manner as in Example 3 except that N^2-hexadecanoyl-L-arginine (SZ61), N-hexadecanoylagmatine (SZ62), N^2-hexadecanoyl-L-arginine methyl ester hydrochloride (SZ63), N^2-octadecanoyl-L-glutamine tert-butyl ester (SZ64), and N^2-octadecanoyl-L-glutamine (SZ65) were used.
This test was performed in the same manner as in Example 6 except that N-hexadecanoylagmatine (SZ62), N^2-octadecanoyl-L-glutamine tert-butyl ester (SZ64), N-docosanoyl-L-leucine methyl ester (SZ70), and N-docosanoyl-L-phenylalanine methyl ester (SZ71) were used and a positive control adjuvant Addavax™ (InvivoGen) administration group was formed.
(§1) The allergy inducing activity test was performed in the same manner as in Example 3 except that Addavax™, N-(2-octadecyleicosanoyl)-L-leucine methyl ester (SZ86), N-hexadecanoyl-L-leucinamide (SZ90), N^2-hexadecanoyl-N^1,N^1-diethyl-L-leucinamide (SZ92), N^2-hexadecanoyl-L-arginine hexyl ester hydrochloride (SZ99) and N^2-docosanoyl-N^1,N^1-diethyl-L-glutamic acid 1-amide (SZ106) were used.
as §1, with “N-hexadecanoyl-L-leucine” for “N^2-hexadecanoyl-L-arginine”, “(SZ97),” for “hydrochloride (SZ99) and”, “(SZ106) and N-docosanoylagmatine hydrochloride (SZ108)” for “(SZ106)”
8-Week-old female BALB/c mice were divided into groups (N=6), and each group was primarily immunized by dorsal-subcutaneous administration of (1) ovalbumin (OVA) (5 μg) dissolved in saline as an antigen (OVA single administration group), (2) OVA (10 μg) and aluminum hydroxide salt dissolved in saline (Alum administration group), (3) OVA 10 μg and Addavax™ (mixed with saline at 1:1) dissolved in saline (Addavax™ administration group), (4) OVA 10 μg and CpG 5 μg dissolved in saline (CpG administration group), (5) OVA 10 μg and MPL 5 μg dissolved in saline (MPL administration group), (6) OVA (5 μg) and SZ62 (0.256 μmol) dissolved or dispersed in 5% αCD-added saline (SZ62 administration group), (7) OVA (5 μg), SZ62 (0.256 μmol) and CpG 5 μg dissolved or dispersed in 5% αCD-added saline (SZ62+CpG administration group), (8) OVA 10 μg, Addavax™ (mixed with saline at 1:1) and CpG 5 μg dissolved in saline (Addavax™+CpG administration group), (9) OVA (5 μg), SZ62 (0.256 μmol) and MPL 5 μg dissolved or dispersed in 5% αCD-added saline (SZ62+MPL administration group), (10) OVA (10 μg), aluminum hydroxide salt (Alum) and MPL 5 μg dissolved in saline (Alum+MPL administration group), each per mouse. One week later, the secondary immunization was carried out by dorsal-subcutaneous administration of solutions or dispersions similar to those of the above-mentioned (1) to (10) again.

IFN-γ = test: Th1 response: IFN-γ production from lymph node cells of immunized mice restimulated with OVA; assay type: in vivo, BALB/c mice; settings: Example 10; s.c. OVA 10 μg + 0.256 μmol in 5% αCD saline (Addavax 1:1); groin lymph node ten days later; 0.1-100 μg OVA, 40 hr, ELISA
Procedure: (§2) Ten days later, groin lymph node was collected from all mice of the above-mentioned (1) to (4), lymph node cells were isolated and cultured in 10% FBS-containing RPMI1640 medium. Thereto was added 0.1 μg, 1 μg, 10 μg, 100 μg of OVA, respectively, 40 hr later, cell supernatant was recovered, and IFN-γ and IL-4 in the supernatant were measured by ELISA.

IL-4 = test: Th2 response: IL-4 production from lymph node cells of immunized mice restimulated with OVA; assay type: in vivo, BALB/c mice; settings: Example 10; s.c. OVA 10 μg + 0.256 μmol in 5% αCD saline (Addavax 1:1); groin lymph node ten days later; 0.1-100 μg OVA, 40 hr, ELISA
Procedure: as §2

[3] = tested on: anti-OVA-specific IgG1 subclass antibody; test: Adjuvant activity after primary immunization: anti-OVA-specific IgG1 subclass antibody in serum (Examples 13-18); assay type: in vivo, BALB/c mice; settings: Example 18; OVA 5 μg + 0.256 μmol in 5% αCD saline s.c.; serum after 12 days
Procedure: 8-Week-old female BALB/c mice were divided into groups (N=6), and each group was primarily immunized by dorsal-subcutaneous administration of (1) ovalbumin (OVA) (5 μg) dissolved in saline as an antigen (OVA single administration group), (2) OVA (5 μg) and SZ83 (0.256 μmol) dissolved or dispersed in 5% αCD-added saline (SZ83 administration group), (3) OVA (5 μg) and SZ84 (0.256 μmol) dissolved or dispersed in 5% αCD-added saline (SZ84 administration group), (4) OVA (5 μg) and SZ86 (0.256 μmol) dissolved or dispersed in 5% αCD-added saline (SZ86 administration group), (5) OVA (5 μg) and SZ89 (0.256 μmol) dissolved or dispersed in 5% αCD-added saline (SZ89 administration group), (6) OVA (5 μg) and SZ90 (0.256 μmol) dissolved or dispersed in 5% αCD-added saline (SZ90 administration group), each per mouse. After 12 days, blood samples were collected under anesthesia, and the obtained serum samples were subjected to the measurement of an anti-OVA-specific IgG1 subclass antibody.
Measurement Method of Concentration of anti-OVA-specific IgG1 Subclass Antibody and anti-OVA-specific IgG2a Subclass Antibody
To a 96 well plate was added 5 μg/ml OVA at 100 μl/well, and the mixture was incubated at 4° C. overnight. After incubation, the mixture was washed three times with 200 μl of PBS-T (PBS+0.05% (v/v) Tween 20) per well, and blocked with 100 μl of 5% FCS/PBS solution per well at room temperature for 1 to for 2 hr. Thereafter, the mixture was washed three times with PBS-T (200 μl/well), a diluted serum sample (100 μl/well) or the same amount of 5% FCS/PBS solution as a control was added, to and the mixture was incubated at 37° C. for 1 hr. To calculate concentration of the antibody, the standard of an anti-OVA-specific IgG1 subclass antibody diluted with 2% FCS/PBS solution was added at 100 ng/ml, 50 ng/ml, 25 ng/ml, 12.5 ng/ml, 6.25 ng/ml, 3.125 ng/ml, 1.56 ng/ml, 0.781 ng/ml, 0.391 ng/ml, 0.195 ng/ml, 0.098 ng/ml, 0 ng/ml, per 1 well. When an anti-OVA-specific IgG2a subclass antibody was measured, the standard of an anti-OVA-specific IgG2a subclass antibody was added at 50 ng/ml, 25 ng/ml, 12,5 ng/ml, 6.25 ng/ml, 3.125 ng/ml, 1.56 ng/ml, 0.781 ng/ml, 0.391 ng/ml, 0.195 ng/ml, 0.098 ng/ml, 0.049 ng/ml, 0 ng/ml, per 1 well. […] Thereafter, the mixture was washed five times with PBS-T (200 μl/well), a diluted anti-biotin-HRP antibody was added (100 μl/well), and the mixture was incubated at 37° C. for another 30 min. Thereafter, the mixture was washed five times with PBS-T (200 μl/well), TMB substrate solution was added (100 μl/well), and the mixture was incubated at room temperature for 10- for 15 min. Thereafter, a reaction quenching liquid (2N sulfuric acid solution) was added (50 μl/well) to discontinue a color developing reaction, and the absorbance (OD Value=450 nm) was measured by a microplate reader. A standard curve was drawn from the measured OD values, and the concentration was calculated.
8-Week-old female BALB/c mice were divided into groups (N=6), and each group was primarily immunized by dorsal-subcutaneous administration of (1) ovalbumin (OVA) (5 μg) dissolved in saline as an antigen (OVA single administration group), (2) OVA (5 μg) and SZ92 (0.256 μmol) dissolved or dispersed in 5% αCD-added saline (SZ92 administration group), (3) OVA (5 μg) and SZ94 (0.256 μmol) dissolved or dispersed in 5% αCD-added saline (SZ94 administration group), (4) OVA (5 μg) and SZ95 (0.256 μmol) dissolved or dispersed in 5% αCD-added saline (SZ95 administration group), (5) OVA (5 μg) and SZ96 (0.256 μmol) dissolved or dispersed in 5% αCD-added saline (SZ96 administration group), each per mouse. After 12 days, blood samples were collected under anesthesia, and the obtained serum samples were subjected to the measurement of anti-OVA-specific IgG1 subclass antibody.

[4] = tested on: anti-influenza IgA antibody; test: Transnasal influenza vaccine adjuvant activity: anti-influenza IgA antibody in nasal cavity wash; assay type: in vivo, BALB/c mice; settings: Example 4, influenza HA vaccine 20 μl, SZ62 1 μg, Poly(I:C) 5 μg, two weeks from secondary immunization

CCCCCCCCCCCCCCCCCCCCCC(=O)N[C@@H](CC(C)C)C(=O)OC [SZ70, N-docosanoyl-L-leucine methyl ester]
adjuvant activity (IgG1) compared with Alum [1]: equivalent to or not less than that of Alum | anti-OVA-specific IgG1 subclass antibody production as compared to the OVA single administration group ([1]; same manner as Example 1, plus Addavax group): significantly increased | allergy inducing activity as compared to aluminum hydroxide gel adjuvant and Addavax [2]: lower allergy inducing activity | IFN-γ production from lymph node cells (IFN-γ): increased in an OVA volume dependent manner | IL-4 production from lymph node cells (IL-4): did not show an increase

CCCCCCCCCCCCCCCCCCCCCC(=O)N[C@@H](CCCNC(=N)N)C(N)=O.Cl [SZ128, N^2-docosanoyl-L-arginine amide hydrochloride salt]
anti-OVA-specific IgG1 subclass antibody production after primary immunization as compared to the OVA single administration group [3]: significantly increased

CCCCCCCCCCCCCCCCCCCCCC(=O)N[C@@H](CCCNC(=N)N)C(=O)N(CC)CC.Cl [SZ129, N^2-docosanoyl-N^1,N^1-diethyl-L-arginine amide hydrochloride salt]
anti-OVA-specific IgG1 subclass antibody production after primary immunization as compared to the OVA single administration group [3]: significantly increased

CCCCCCOC(=O)[C@H](CCCNC(=N)N)NC(=O)CCCCC.Cl [SZ130, N^2-hexanoyl-L-arginine hexyl ester hydrochloride salt]
anti-OVA-specific IgG1 subclass antibody production after primary immunization as compared to the OVA single administration group [3]: tended to increase

CCCCCCCCCCCCCCCC(=O)N[C@@H](CCC(=O)O)C(=O)OCCCCCC [SZ134, N-hexadecanoyl-L-glutamic acid hexyl ester]
anti-OVA-specific IgG1 subclass antibody production after primary immunization as compared to the OVA single administration group [3]: tended to increase

CCCCCCCCCCCCCCCCCCCCCC(=O)N[C@@H](CCC(=O)O)C(=O)OCCCCCC [SZ135, N-docosanoyl-L-glutamic acid hexyl ester]
anti-OVA-specific IgG1 subclass antibody production after primary immunization as compared to the OVA single administration group [3]: tended to increase

polyinosinic polycytidylic acid [Poly(I:C), reference compound]
anti-influenza IgA antibody production in nasal cavity wash as compared to the influenza vaccine single administration group [4]: a significant increase was not found
